Reference: patent US20140288069A1, “AMINO-SUBSTITUTED IMIDAZOPYRIDAZINES AS MKNK1 KINASE INHIBITORS” (Bayer Intellectual Property GmbH, priority 2011, published 2014)

target: T1, human full-length MKNK1 (Homo sapiens, UniProt Q9BUB5, T385D); experiment: MKNK1 kinase high ATP assay (TR-FRET-based); assay type: biochemical; details: final ATP 2 mM, 15 min pre-incubation with MKNK1, GST-MKNK1 (T344D);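 also: biotinylated peptide phosphorylation read out via Eu-chelate to streptavidin-XL665 energy transfer using anti-phospho-S6 (Ser236) antibody, 30 min reaction at 22 °C with 0.06 µM substrate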
T1 construct: GST (N); purchased Carna Biosciences 02-145; host or cells: insect cells (baculovirus)
T1 sequence (Q9BUB5 1-424 isoform Q9BUB5-2 T344D): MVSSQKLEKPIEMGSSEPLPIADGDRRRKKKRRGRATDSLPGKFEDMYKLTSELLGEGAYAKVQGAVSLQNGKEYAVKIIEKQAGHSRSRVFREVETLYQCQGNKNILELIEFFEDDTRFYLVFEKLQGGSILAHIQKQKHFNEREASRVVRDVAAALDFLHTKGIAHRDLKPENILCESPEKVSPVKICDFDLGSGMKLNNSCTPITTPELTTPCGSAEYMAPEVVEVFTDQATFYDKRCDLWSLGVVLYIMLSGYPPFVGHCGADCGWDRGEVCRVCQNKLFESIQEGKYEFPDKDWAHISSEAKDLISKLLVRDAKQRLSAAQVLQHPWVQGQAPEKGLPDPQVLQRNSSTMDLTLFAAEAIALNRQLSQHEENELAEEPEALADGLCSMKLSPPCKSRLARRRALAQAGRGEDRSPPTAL
Source text: A recombinant fusion protein of Glutathione-S-Transferase (GST, N-terminally) and human full-length MKNK1 (amino acids 1-424 and T344D of accession number BAA 19885.1), expressed in insect cells using baculovirus expression system and purified via glutathione sepharose affinity chromatography, was purchased from Carna Biosciences (product no 02-145) and used as enzyme. As substrate for the kinase reaction the biotinylated peptide biotin-Ahx-[sequence] (C-terminus in amide form) was used, which can be purchased e.g. from the company Biosyntan (Berlin-Buch, Germany).
For the assay 50 nl nL of a 100 fold concentrated solution of the test compound in DMSO was pipetted into a black low volume 384 well microtiter plate (Greiner Bio-One, Frickenhausen, Germany), 2 μL of a solution of MKNK1 in aqueous assay buffer [50 mM HEPES pH 7.5, 5 mM magnesium chloride, 1.0 mM dithiothreitol, 0.005% (v/v) Nonidet-P40 (Sigma)] was added and the mixture was incubated for 15 min at 22° C. to allow pre-binding of the test compounds to the enzyme before the start of the kinase reaction. Then the kinase reaction was started by the addition of 3 μL of a solution of adenosine-tri-phosphate (ATP, 3.3 mM=>final conc. in the 5 μL assay volume is 2 mM) and substrate (0.1 μM=>final conc. in the 5 μL assay volume is 0.06 μM) in assay buffer and the resulting mixture was incubated for a reaction time of 30 min at 22° C. The concentration of MKNK1 was adjusted depending of the activity of the enzyme lot and was chosen appropriate to have the assay in the linear range, typical concentrations were in the range of 0.003 μg/mL. The reaction was stopped by the addition of 5 μL of a solution of TR-FRET detection reagents (5 nM streptavidine-XL665 [Cisbio Bioassays, Codolet, France] and 1 nM anti-ribosomal protein S6 (pSer236)-antibody from Invitrogen [#44921G] and 1 nM LANCE EU-W1024 labeled ProteinG [Perkin-Elmer, product no. 4D0071]) in an aqueous EDTA-solution (100 mM EDTA, 0.1% (w/v) bovine serum albumin in 50 mM HEPES pH 7.5).
The resulting mixture was incubated for 1 h at 22° C. to allow the formation of complex between the phosphorylated biotinylated peptide and the detection reagents. Subsequently the amount of phosphorylated substrate was evaluated by measurement of the resonance energy transfer from the Eu-chelate to the streptavidine-XL. Therefore, the fluorescence emissions at 620 nm and 665 nm after excitation at 350 nm were measured in a TR-FRET reader, e.g. a Rubystar (BMG Labtechnologies, Offenburg, Germany) or a Viewlux (Perkin-Elmer). The ratio of the emissions at 665 nm and at 622 nm was taken as the measure for the amount of phosphorylated substrate.

`CC(C)C(O)CNc1ccc2ncc(-c3cc4ccccc4o3)n2n1` (centres unmarked) [Example 33, 1-{[3-(1-Benzofuran-2-yl)imidazo[1,2-b]pyridazin-6-yl]amino}-3-methylbutan-2-ol] and `CC(C)(C)C(O)CNc1ccc2ncc(-c3cc4ccccc4o3)n2n1` (centres unmarked) [Example 34, 1-{[3-(1-Benzofuran-2-yl)imidazo[1,2-b]pyridazin-6-yl]amino}-3,3-dimethylbutan-2-ol] are the same in IC50: 21 nM for the first, 21 nM for the second.

Going from `OC(CNc1ccc2ncc(-c3cc4ccccc4o3)n2n1)c1ccc(F)cc1` (centres unmarked) [Example 41, 2-{[3-(1-Benzofuran-2-yl)imidazo[1,2-b]pyridazin-6-yl]amino}-1-(4-fluoro-phenyl)ethanol] to `CCC(O)CNc1ccc2ncc(-c3cc4ccccc4o3)n2n1` (centres unmarked) [Example 29, 1-{[3-(1-Benzofuran-2-yl)imidazo[1,2-b]pyridazin-6-yl]amino}butan-2-ol], the IC50 falls from 41 nM to 6 nM (6.8-fold).

Going from `COc1nccc2oc(-c3cnc4ccc(NCC(O)C5CC5)nn34)cc12` (centres unmarked) [Example 27, 1-Cyclopropyl-2-{[3-(4-methoxyfuro[3,2-c]pyridin-2-yl)imidazo[1,2-b]pyridazin-6-yl]amino}ethanol] to `COc1nccc2oc(-c3cnc4ccc(NCC(O)C5CCOCC5)nn34)cc12` (centres unmarked) [Example 32, 2-{[3-(4-Methoxyfuro[3,2-c]pyridin-2-yl)imidazo[1,2-b]pyridazin-6-yl]amino}-1-(tetrahydro-2H-pyran-4-yl)ethanol], the IC50 rises from 4 nM to 18 nM (4.5-fold). The first is the more potent here.

Compared with `CN(C)CCNc1ccc2ncc(-c3cc4ccccc4o3)n2n1` [Example R7, N′-[3-(1-Benzofuran-2-yl)imidazo[1,2-b]pyridazin-6-yl]-N,N-dimethylethane-1,2-diamine, reference compound], `NCC(O)CNc1ccc2ncc(-c3cc4ccccc4o3)n2n1` (centres unmarked) [Example 31, 1-Amino-3-{[3-(1-benzofuran-2-yl)imidazo[1,2-b]pyridazin-6-yl]amino}propan-2-ol] is 1.6-fold lower in IC50: 13 nM for the first, 8 nM for the second. The second is the more potent here.

`OC(CNc1ccc2ncc(-c3cc4ccccc4o3)n2n1)C1CCCCC1` (centres unmarked) [Example 37, 2-{[3-(1-Benzofuran-2-yl)imidazo[1,2-b]pyridazin-6-yl]amino}-1-cyclohexylethanol] and `OC(CNc1ccc2ncc(-c3cc4ccccc4o3)n2n1)C1CC1` (single isomer, unassigned; (+)) [Example 23, (+)-2-{[3-(1-Benzofuran-2-yl)imidazo[1,2-b]pyridazin-6-yl]amino}-1-cyclopropylethanol] are within 1.5-fold of each other in IC50: 29 nM for the first, 27 nM for the second.

Compared with `c1ccc(Nc2ccc3ncc(-c4ccncc4)n3n2)cc1` [Example R2, N-Phenyl-3-(pyridin-4-yl)imidazo-[1,2-b]-pyridazin-6-amine, reference compound], `c1ccc(CNc2ccc3ncc(-c4ccncc4)n3n2)cc1` [Example R1, N-Benzyl-3-(pyridin-4-yl)imidazo[1,2-b]pyridazin-6-amine, reference compound] is 2.2-fold higher in IC50: 170 nM for the first, 370 nM for the second. The first is the more potent here.

First: c1ccc(CCNc2ccc3ncc(-c4cc5ccccc5o4)n3n2)nc1 [Example R6, 3-(1-Benzofuran-2-yl)-N-[2-(pyridin-2-yl)ethyl]imidazo[1,2-b]pyridazin-6-amine, reference compound]
Second: c1ccc2oc(-c3cnc4ccc(NCc5ccncc5)nn34)cc2c1 [Example R8, 3-(1-Benzofuran-2-yl)-N-(pyridin-4-ylmethyl)imidazo[1,2-b]pyridazin-6-amine, reference compound]
The IC50 of the first is 7.4-fold higher: 250 nM for the first, 34 nM for the second. The second is the more potent here.

First: CCC(O)CNc1ccc2ncc(-c3cc4c(OC)nccc4o3)n2n1 (centres unmarked) [Example 30, 1-{[3-(4-Methoxyfuro[3,2-c]pyridin-2-yl)imidazo[1,2-b]pyridazin-6-yl]amino}butan-2-ol]
Second: COc1nccc2oc(-c3cnc4ccc(NC[C@@H](O)c5ccccc5)nn34)cc12 [Example 35, (1S)-2-{[3-(4-Methoxyfuro[3,2-c]pyridin-2-yl)imidazo[1,2-b]pyridazin-6-yl]-amino}-1-phenylethanol]
The IC50 of the first is 4.2-fold lower: 6 nM for the first, 25 nM for the second.

First: c1cc(Nc2ccc3ncc(-c4ccncc4)n3n2)ccn1 [Example R4, N,3-Di(pyridin-4-yl)-imidazo-[1,2-b]-pyridazin-6-amine, reference compound]
Second: c1cc(-c2cnc3ccc(NC4CCOCC4)nn23)ccn1 [Example R5, 3-(Pyridin-4-yl)-N-(tetra-hydro-2H-pyran-4-yl)-imidazo-[1,2-b]-pyridazin-6-amine, reference compound]
The IC50 of the first is 1.7-fold higher: 810 nM for the first, 480 nM for the second. The second is the more potent here.

`OC(CNc1ccc2ncc(-c3cc4ccccc4o3)n2n1)CN1CCOCC1` (centres unmarked) [Example 38, 1-{[3-(1-Benzofuran-2-yl)imidazo[1,2-b]pyridazin-6-yl]amino}-3-(morpholin-4-yl)propan-2-ol] and `OC(CNc1ccc2ncc(-c3cc4ccccc4o3)n2n1)CN1CCCC1` (centres unmarked) [Example 40, 1-{[3-(1-Benzofuran-2-yl)imidazo[1,2-b]pyridazin-6-yl]amino}-3-(pyrrolidin-1-yl)propan-2-ol] are within 1.5-fold of each other in IC50: 32 nM for the first, 38 nM for the second.

Compared with `OC(CNc1ccc2ncc(-c3cc4ccccc4o3)n2n1)C1CC1` (single isomer, unassigned; (-)) [Example 24, (−)-2-{[3-(1-Benzofuran-2-yl)imidazo[1,2-b]pyridazin-6-yl]amino}-1-cyclopropylethanol], `OC(CNc1ccc2ncc(-c3cc4ccccc4o3)n2n1)C1CCOCC1` (single isomer, unassigned; (-)) [Example 26, (−)-2-{[3-(1-Benzofuran-2-yl)imidazo[1,2-b]pyridazin-6-yl]amino}-1-(tetrahydro-2H-pyran-4-yl)] is 2-fold higher in IC50: 1 nM for the first, 2 nM for the second.

`O=C1CCCN1CC(O)CNc1ccc2ncc(-c3cc4ccccc4o3)n2n1` (centres unmarked) [Example 36, 1-(3-{[3-(1-Benzofuran-2-yl)imidazo[1,2-b]pyridazin-6-yl]amino}-2-hydroxy-propyl)pyrrolidin-2-one] and `OC(CNc1ccc2ncc(-c3cc4ccccc4o3)n2n1)CN1CCCCC1` (centres unmarked) [Example 39, 1-{[3-(1-Benzofuran-2-yl)imidazo[1,2-b]pyridazin-6-yl]amino}-3-(piperidin-1-yl)propan-2-ol] are within 1.5-fold of each other in IC50: 26 nM for the first, 37 nM for the second.

`OC(CNc1ccc2ncc(-c3cc4ccccc4o3)n2n1)C1CCOCC1` (single isomer, unassigned; (+)) [Example 25, (+)-2-{[3-(1-Benzofuran-2-yl)imidazo[1,2-b]pyridazin-6-yl]amino}-1-(tetrahydro-2H-pyran-4-yl)] and `COc1nccc2oc(-c3cnc4ccc(NC[C@H](O)c5ccccc5)nn34)cc12` [Example 28, (1R)-2-{[3-(4-Methoxyfuro[3,2-c]pyridin-2-yl)imidazo[1,2-b]pyridazin-6-yl]amino}-1-phenylethanol] are within 1.5-fold of each other in IC50: 7 nM for the first, 5 nM for the second.

target: T2, human full-lengt MKNK1 (Homo sapiens, UniProt Q9BUB5, T385D); experiment: MKNK1 kinase assay (MKNK1 TR-FRET assay); assay type: biochemical; details: final ATP 10 μM, 15 min pre-incubation, GST-MKNK1 (T344D)
T2 construct: GST (N); purchased Carna Biosciences 02-145; host or cells: insect cells (baculovirus)
T2 sequence (Q9BUB5 1-424 isoform Q9BUB5-2 T344D): as above
Procedure: MKNK1-inhibitory activity of compounds of the present invention was quantified employing the MKNK1 TR-FRET assay as described in the following paragraphs.
As substrate for the kinase reaction the biotinylated peptide biotin-Ahx-[sequence] (C-terminus in amide form) was used which can be purchased e.g. form the company Biosyntan (Berlin-Buch, Germany).
For the assay 50 mL of a 100 fold concentrated solution of the test compound in DMSO was pipetted into a black low volume 384 well microtiter plate (Greiner Bio-One, Frickenhausen, Germany), 2 μL of a solution of MKNK1 in aqueous assay buffer [50 mM HEPES pH 7.5, 5 mM magnesium chloride, 1.0 mM dithiothreitol, 0.005% (v/v) Nonidet-P40 (Sigma)] was added and the mixture was incubated for 15 min at 22° C. to allow pre-binding of the test compounds to the enzyme before the start of the kinase reaction. […] The concentration of MKNK1 was adjusted depending of the activity of the enzyme lot and was chosen appropriate to have the assay in the linear range, typical concentrations were in the range of 0.05 μg/ml. The reaction was stopped by the addition of 5 μL of a solution of TR-FRET detection reagents (5 nM streptavidine-XL665 [Cisbio Bioassays, Codalet, France] and 1 nM anti-ribosomal protein S6 (pSer236)-antibody from Invitrogen [#44921G] and 1 nM LANCE EU-W1024 labeled ProteinG [Perkin-Elmer, product no. 4D0071]) in an aqueous EDTA-solution (100 mM EDTA, 0.1% (w/v) bovine serum albumin in 50 mM HEPES pH 7.5).
The resulting mixture was incubated for 1 h at 22° C. to allow the formation of complex between the phosphorylated biotinylated peptide and the detection reagents. Subsequently the amount of phosphorylated substrate was evaluated by measurement of the resonance energy transfer from the Eu-chelate to the streptavidine-XL.

Compared with `CN(C)CCNc1ccc2ncc(-c3cc4ccccc4o3)n2n1` [Example R7, N′-[3-(1-Benzofuran-2-yl)imidazo[1,2-b]pyridazin-6-yl]-N,N-dimethylethane-1,2-diamine, reference compound], `OCCNc1ccc2ncc(-c3cc4ccccc4o3)n2n1` [Example 13, 2-{[3-(1-Benzofuran-2-yl)imidazo[1,2-b]pyridazin-6-yl]amino}ethanol] is 1.8-fold lower in IC50: 11 nM for the first, 6 nM for the second. The second is the more potent here.

Compared with `c1ccc(Nc2ccc3ncc(-c4ccncc4)n3n2)cc1` [Example R2, N-Phenyl-3-(pyridin-4-yl)imidazo-[1,2-b]-pyridazin-6-amine, reference compound], `c1ccc(CNc2ccc3ncc(-c4ccncc4)n3n2)cc1` [Example R1, N-Benzyl-3-(pyridin-4-yl)imidazo[1,2-b]pyridazin-6-amine, reference compound] is 2.8-fold higher in IC50: 64 nM for the first, 181 nM for the second.

Going from `O[C@H](CNc1ccc2ncc(-c3cc4ccccc4o3)n2n1)c1ccccc1` [Example 19, (1S)-2-{[3-(1-Benzofuran-2-yl)imidazo[1,2-b]pyridazin-6-yl]amino}-1-phenylethanol] to `O[C@@H](CNc1ccc2ncc(-c3cc4ccccc4o3)n2n1)c1ccccc1` [Example 18, (1R)-2-{[3-(1-Benzofuran-2-yl)imidazo[1,2-b]pyridazin-6-yl]amino}-1-phenylethanol], the IC50 falls from 22 nM to 1 nM (22-fold). The second is the more potent here.

Going from `c1ccc(CCNc2ccc3ncc(-c4cc5ccccc5o4)n3n2)nc1` [Example R6, 3-(1-Benzofuran-2-yl)-N-[2-(pyridin-2-yl)ethyl]imidazo[1,2-b]pyridazin-6-amine, reference compound] to `OC(CNc1ccc2ncc(-c3cc4ccccc4o3)n2n1)c1ccccn1` (centres unmarked) [Example 22, 2-{[3-(1-Benzofuran-2-yl)imidazo[1,2-b]pyridazin-6-yl]amino}-1-(pyridin-2-yl)ethanol], the IC50 falls from 17 nM to 5 nM (3.4-fold).

Compared with `O[C@@H](CNc1ccc2ncc(-c3cc4ccccc4o3)n2n1)c1cccnc1` [Example 20, (1R)-2-{[3-(1-Benzofuran-2-yl)imidazo[1,2-b]pyridazin-6-yl]amino}-1-(pyridin-3-yl)ethanol], `c1ccc2oc(-c3cnc4ccc(NCc5ccncc5)nn34)cc2c1` [Example R8, 3-(1-Benzofuran-2-yl)-N-(pyridin-4-ylmethyl)imidazo[1,2-b]pyridazin-6-amine, reference compound] is 23-fold higher in IC50: 1 nM for the first, 23 nM for the second.

`c1cc(Nc2ccc3ncc(-c4ccncc4)n3n2)ccn1` [Example R4, N,3-Di(pyridin-4-yl)-imidazo-[1,2-b]-pyridazin-6-amine, reference compound] and `c1cc(-c2cnc3ccc(NC4CCOCC4)nn23)ccn1` [Example R5, 3-(Pyridin-4-yl)-N-(tetra-hydro-2H-pyran-4-yl)-imidazo-[1,2-b]-pyridazin-6-amine, reference compound] are within 1.5-fold of each other in IC50: 245 nM for the first, 192 nM for the second.

`CC[C@@H](CO)Nc1ccc2ncc(-c3cc4ccccc4o3)n2n1` [Example 4, (2S)-2-{[3-(1-Benzofuran-2-yl)-imidazo[1,2-b]-pyridazin-6-yl]-amino}butan-1-ol] and `OC[C@@H](O)CNc1ccc2ncc(-c3cc4ccccc4o3)n2n1` [Example 17, (2S)-3-{[3-(1-Benzofuran-2-yl)-imidazo-[1,2-b]-pyridazin-6-yl]amino}-propane-1,2-diol] are within 1.5-fold of each other in IC50: 15 nM for the first, 13 nM for the second.

First: OC[C@H](O)CNc1ccc2ncc(-c3cc4ccccc4o3)n2n1 [Example 16, (2R)-3-{[3-(1-Benzofuran-2-yl)imidazo[1,2-b]pyridazin-6-yl]amino}propane-1,2-diol]
Second: OCCCNc1ccc2ncc(-c3cc4ccccc4o3)n2n1 [Example 14, 3-{[3-(1-Benzofuran-2-yl)imidazo[1,2-b]pyridazin-6-yl]amino}propan-1-ol]
The IC50 of the first is 1.8-fold lower: 4 nM for the first, 7 nM for the second. The first is the more potent here.

Going from `OC(CCNc1ccc2ncc(-c3cc4ccccc4o3)n2n1)c1ccc(F)cc1` (centres unmarked) [Example 15, 3-{[3-(1-Benzofuran-2-yl)-imidazo-[1,2-b]-pyridazin-6-yl]-amino}-1-(4-fluoro-phenyl)-propan-1-ol] to `CC(O)(CNc1ccc2ncc(-c3cc4ccccc4o3)n2n1)c1ccccc1` (centres unmarked) [Example 21, 1-{[3-(1-Benzofuran-2-yl)imidazo[1,2-b]pyridazin-6-yl]amino}-2-phenylpropan-2-ol], the IC50 rises from 32 nM to 60 nM (1.9-fold). The first is the more potent here.
